Converted amounts (≈) assume the structure as drawn.
Tests used:
[1] = test system: MRC5; experiment: Cytotoxicity (gross morphology) was evaluated at 32 uM; format: functional, Homo sapiens
[2] = species: Homo sapiens; experiment: Antiviral activity against Varicella-Zoster virus (VV) in human foreskin cell cultures in virus plaque reduction assay at 100 uM; format: functional
[3] = test system: MRC5; experiment: Cytotoxicity (gross morphology) was evaluated at 100 uM; format: functional, Homo sapiens
[4] = test system: MRC5; experiment: Cytotoxicity (gross morphology) was evaluated at 1 uM; format: functional, Homo sapiens
[5] = species: Homo sapiens; experiment: Antiviral activity against Varicella-Zoster virus (VV) in human foreskin cell cultures in virus plaque reduction assay at 1000 uM; format: functional
[6] = species: Homo sapiens; experiment: Antiviral activity against Varicella-Zoster virus (VV) in human foreskin cell cultures in virus plaque reduction assay at 3.2uM; format: functional
[7] = test system: MRC5; experiment: Replication of human cytomegalovirus strain […] virus yield reduction assay in human diploid embryonic lung cells (MRC5) at 1000 uM (308 ug/mL); format: functional
[8] = test system: MRC5; experiment: Replication of human cytomegalovirus strain […] virus yield expressed as plaque forming units/mL at 1 uM; format: functional
[9] = test system: Human alphaherpesvirus 2; experiment: Minimum inhibitory concentration required to inhibit Herpes simplex virus type 2 (strain MS) induced cytopathogenic effects by 50%. (experiment 2)
[10] = test system: Human alphaherpesvirus 2; experiment: The compound was tested in vitro for anti viral activity against Herpes simplex virus type 2 (strain MS) (experiment 2); value indicates definite and significant antiviral activity
[11] = test system: Human alphaherpesvirus 1; experiment: The compound was tested in vitro for anti viral activity against Herpes simplex virus type 1 (strain 377) (experiment 1); value indicates definite and significant antiviral activity; format: functional
[12] = test system: Human alphaherpesvirus 1; experiment: The compound was tested in vitro for anti viral activity against Herpes simplex virus type 1 (strain 377) (experiment 2); value indicates definite and significant antiviral activity; format: functional
[13] = test system: MRC5; experiment: Percent reduction of CPE (plaques) at the time of harvest at 100 uM; format: functional, Homo sapiens
[14] = test system: MRC5; experiment: Replication of human cytomegalovirus strain […] virus yield expressed as plaque forming units/mL at 1000 uM (308 ug/mL); format: functional
[15] = test system: MRC5; experiment: Percent reduction of CPE (plaques) at the time of harvest at 32 uM; format: functional, Homo sapiens
[16] = test system: MRC5; experiment: Replication of human cytomegalovirus strain […] virus yield expressed as plaque forming units/mL at 320 uM; format: functional
[17] = test system: MRC5; experiment: (§1) Cytotoxicity was determined at 100 uM; format: functional, Homo sapiens
[18] = test system: MRC5; experiment: Replication of human cytomegalovirus strain […] virus yield reduction assay in human diploid embryonic lung cells (MRC5) at 10 uM; format: functional
[19] = species: Homo sapiens; experiment: Antiviral activity against Varicella-Zoster virus (VV) in human foreskin cell cultures in virus plaque reduction assay at 320 uM; format: functional
[20] = test system: MRC5; experiment: Replication of human cytomegalovirus strain […] virus yield reduction assay in human diploid embryonic lung cells (MRC5) at 320 uM; format: functional
[21] = test system: MRC5; experiment: Replication of human cytomegalovirus strain […] virus yield reduction assay in human diploid embryonic lung cells (MRC5) at 3.2 uM; format: functional
[22] = test system: MRC5; experiment: Replication of human cytomegalovirus strain […] virus yield expressed as plaque forming units/mL at 100 uM; format: functional
[23] = species: Homo sapiens; experiment: Antiviral activity against Varicella-Zoster virus (VV) in human foreskin cell cultures in virus plaque reduction assay at 32 uM; format: functional
[24] = test system: Human alphaherpesvirus 1; experiment: Minimum inhibitory concentration required to inhibit Herpes simplex virus type 1 (strain 377) induced cytopathogenic effects by 50%. (experiment 1); format: functional
[25] = test system: P388; experiment: Tested for inhibitory activity against P-388 leukemia cells; format: functional; details: Mus musculus, read-out: ED50 (the source's name)
[26] = test system: MRC5; experiment: Replication of human cytomegalovirus strain […] virus yield expressed as plaque forming units/mL at 3.2 uM; format: functional
[27] = test system: Human alphaherpesvirus 2; experiment: Minimum inhibitory concentration required to inhibit Herpes simplex virus type 2 (strain MS) induced cytopathogenic effects by 50%. (experiment 1)
[28] = test system: MRC5; experiment: Replication of human cytomegalovirus strain […] virus yield reduction assay in human diploid embryonic lung cells (MRC5) at 1 uM; format: functional
[29] = test system: MRC5; experiment: Replication of human cytomegalovirus strain […] virus yield reduction assay in human diploid embryonic lung cells (MRC5) at 32 uM; format: functional
[30] = test system: MRC5; experiment: Percent reduction of CPE (plaques) at the time of harvest at 1 uM; format: functional, Homo sapiens
[31] = species: Homo sapiens; experiment: Antiviral activity against Varicella-Zoster virus (VV) in human foreskin cell cultures in virus plaque reduction assay at 1 uM; format: functional
[32] = test system: MRC5; experiment: Cytotoxicity (gross morphology) was evaluated at 3.2uM; format: functional, Homo sapiens
[33] = test system: MRC5; experiment: Replication of human cytomegalovirus strain […] virus yield expressed as plaque forming units/mL at 10 uM; format: functional
[34] = test system: Human alphaherpesvirus 1; experiment: Minimum inhibitory concentration required to inhibit Herpes simplex virus type 1 (strain 377) induced cytopathogenic effects by 50%. (experiment 2); format: functional
[35] = test system: MRC5; experiment: Percent reduction of CPE (plaques) at the time of harvest at 320 uM; format: functional, Homo sapiens
[36] = test system: MRC5; experiment: Cytotoxicity was determined at 320 uM; format: functional, Homo sapiens
[37] = test system: MRC5; experiment: Cytotoxicity (gross morphology) was evaluated at 10 uM; format: functional, Homo sapiens
[38] = test system: MRC5; experiment: Replication of human cytomegalovirus strain […] virus yield reduction assay in human diploid embryonic lung cells (MRC5) at 100 uM; format: functional
[39] = test system: MRC5; experiment: (§2) Cytotoxicity was determined at 32 uM; format: functional, Homo sapiens
[40] = test system: MRC5; experiment: Replication of human cytomegalovirus strain […] virus yield expressed as plaque forming units/mL at 32 uM; format: functional
[41] = test system: MRC5; experiment: Percent reduction of CPE (plaques) at the time of harvest at 1000 uM (308 ug/mL); format: functional, Homo sapiens
[42] = test system: MRC5; experiment: Percent reduction of CPE (plaques) at the time of harvest at 10 uM; format: functional, Homo sapiens
[43] = test system: Human alphaherpesvirus 2; experiment: The compound was tested in vitro for anti viral activity against Herpes simplex virus type 2 (strain MS) (experiment 1); value indicates definite and significant antiviral activity
[44] = species: Homo sapiens; experiment: Antiviral activity against Varicella-Zoster virus (VV) in human foreskin cell cultures in virus plaque reduction assay at 10 uM; format: functional
[45] = test system: MRC5; experiment: Percent reduction of CPE (plaques) at the time of harvest at 3.2 uM; format: functional, Homo sapiens
[46] = test system: Human alphaherpesvirus 1; experiment: Minimum inhibitory concentration required to inhibit Herpes simplex virus type 1 (strain 377) induced cytopathogenic effects by 50%.; format: functional
[47] = test system: Human alphaherpesvirus 1; experiment: The compound was tested in vitro for anti viral activity against Herpes simplex virus type 1 (strain 377); format: functional
[48] = test system: Human alphaherpesvirus 1; experiment: The compound was tested in vitro for definite and significant anti viral activity against Herpes simplex virus type 1 (strain 377); value indicates definite and significant antiviral activity; format: functional
[49] = species: Homo sapiens; experiment: Antiviral activity against Varicella-Zoster virus (VV) in human foreskin cell cultures in virus plaque reduction assay at 3.2 uM; format: functional
[50] = species: Homo sapiens; experiment: as §2; format: functional
[51] = test system: Human alphaherpesvirus 2; experiment: The compound was tested in vitro for anti viral activity against Herpes simplex virus type 2 (strain MS); format: functional
[52] = species: Homo sapiens; experiment: as §1; format: functional
[53] = test system: Human alphaherpesvirus 2; experiment: Minimum inhibitory concentration required to inhibit Herpes simplex virus type 2 (strain MS) induced cytopathogenic effects by 50%.; format: functional

## Nc1nc(O)c2ncn(C3CC(CO)C(O)C3O)c2n1 (stereo not drawn)
[1]
  Cytotoxicity: 0
[2]
  Reduction: 100%
[3]
  Cytotoxicity: 0
[4]
  Cytotoxicity: 0
[5]
  Reduction: 100%
[6]
  Reduction: 18%
[7]
  Virus yield reduction: 5.2
[8]
  CMV yield: 96000 pfu/ml
[9]
  MIC50: 23.5 µg/mL (≈ 83.5 µM)
[10]
  Virus rating: 3.9
[11]
  Virus rating: 5.7
[12]
  Virus rating: 5.6
[13]
  Reduction: 80%
[14]
  CMV yield: 0 pfu/ml
[15]
  Reduction: 25%
[16]
  CMV yield: 0 pfu/ml
[17]
  Cytotoxicity: 0
[18]
  Virus yield reduction: 0.2
[19]
  Reduction: 100%
[20]
  Virus yield reduction: 5.2
[21]
  Virus yield reduction: 0.2
[22]
  CMV yield: 100 pfu/ml
[23]
  Reduction: 79%
[24]
  MIC50: 1.8 µg/mL (≈ 6.4 µM)
[25]
  EC50: 8.9 µM
[26]
  CMV yield: 108000 pfu/ml
[27]
  MIC50: 22.8 µg/mL (≈ 81.1 µM)
[28]
  Virus yield reduction: 0.2
[29]
  Virus yield reduction: 1.1
[30]
  Reduction: 0%
[31]
  Reduction: 18%
[32]
  Cytotoxicity: 0
[33]
  CMV yield: 96000 pfu/ml
[34]
  MIC50: 3 µg/mL (≈ 10.7 µM)
[35]
  Reduction: 100%
[36]
  Cytotoxicity: 0
[37]
  Cytotoxicity: 0
[38]
  Virus yield reduction: 3.2
[39]
  Cytotoxicity: 0
[40]
  CMV yield: 12800 pfu/ml
[41]
  Reduction: 100%
[42]
  Reduction: 0%
[43]
  Virus rating: 2.6
[44]
  Reduction: 26%
[45]
  Reduction: 0%

## Nc1nc(Cl)c2ncn(C3CC(CO)C(O)C3O)c2n1 (stereo not drawn)
[46]
  MIC50: 100 µg/mL (≈ 334 µM)
[47]
  Virus rating: 1.8
[25]
  EC50: 220 µM

## COc1nc(N)nc2c1nnn2C1CC(CO)C(O)C1O (stereo not drawn)
[25]
  EC50: 63 µM

## Nc1nc(N)c2nnn(C3CC(CO)C(O)C3O)c2n1 (stereo not drawn)
[48]
  Virus rating: 2
[46]
  MIC50: 66.9 µg/mL (≈ 238 µM)
[25]
  EC50: 5.3 µM

## Nc1ncnc2c1ncn2[C@@H]1O[C@H](CO)[C@@H](O)[C@@H]1O [VIDARABINE]
[49]
  Reduction: 18%
[2]
  Reduction: 97%
[46]
  MIC50: 9.8 µg/mL (≈ 36.7 µM)
[50]
  Cytotoxicity: 0
[51]
  Virus rating: 2.3
[47]
  Virus rating: 3.1
[52]
  Cytotoxicity: 0
[19]
  Reduction: 100%
[23]
  Reduction: 97%
[53]
  MIC50: 30 µg/mL (≈ 112 µM)
[44]
  Reduction: 44%
